Biological target: Arf-GAP with SH3 domain, ANK repeat and PH domain-containing protein 1 (Homo sapiens, UniProt Q9ULH1)
Sequence (Q9ULH1 whole entry, the tested form may be a part): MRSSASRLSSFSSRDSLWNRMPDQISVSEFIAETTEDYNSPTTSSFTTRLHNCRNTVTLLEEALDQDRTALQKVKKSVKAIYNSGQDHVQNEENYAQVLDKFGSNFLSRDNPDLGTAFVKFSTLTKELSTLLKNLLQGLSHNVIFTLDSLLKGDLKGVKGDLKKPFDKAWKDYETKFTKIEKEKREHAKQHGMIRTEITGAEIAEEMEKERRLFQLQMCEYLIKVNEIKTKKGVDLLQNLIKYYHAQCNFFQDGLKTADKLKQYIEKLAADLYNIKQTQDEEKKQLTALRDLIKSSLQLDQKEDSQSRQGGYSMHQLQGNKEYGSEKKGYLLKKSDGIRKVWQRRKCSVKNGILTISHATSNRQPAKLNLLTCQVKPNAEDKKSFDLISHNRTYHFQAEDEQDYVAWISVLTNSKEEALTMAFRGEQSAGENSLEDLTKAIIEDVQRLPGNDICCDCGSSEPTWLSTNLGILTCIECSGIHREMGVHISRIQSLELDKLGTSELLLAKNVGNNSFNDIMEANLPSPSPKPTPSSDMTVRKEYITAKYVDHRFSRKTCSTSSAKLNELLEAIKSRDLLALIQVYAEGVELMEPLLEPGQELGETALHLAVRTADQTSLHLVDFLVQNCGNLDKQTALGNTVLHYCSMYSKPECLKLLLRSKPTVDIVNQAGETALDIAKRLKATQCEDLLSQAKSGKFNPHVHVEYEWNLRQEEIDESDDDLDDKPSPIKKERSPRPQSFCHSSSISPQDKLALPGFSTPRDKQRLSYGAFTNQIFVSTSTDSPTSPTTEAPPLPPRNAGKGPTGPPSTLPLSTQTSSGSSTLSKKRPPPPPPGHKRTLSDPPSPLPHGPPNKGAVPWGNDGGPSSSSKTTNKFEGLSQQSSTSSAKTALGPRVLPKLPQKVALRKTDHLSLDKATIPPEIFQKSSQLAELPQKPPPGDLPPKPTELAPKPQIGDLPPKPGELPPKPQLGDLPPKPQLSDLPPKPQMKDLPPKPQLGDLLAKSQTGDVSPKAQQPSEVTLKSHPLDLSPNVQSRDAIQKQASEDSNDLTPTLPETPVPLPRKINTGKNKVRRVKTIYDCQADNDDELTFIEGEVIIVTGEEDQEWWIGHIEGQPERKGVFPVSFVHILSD

O=C(Nc1cccc(-c2csc(Nc3ccc(Cl)cc3)n2)c1)c1ccccc1
IC50: > 165 µM

— BindingDB's records for doi:10.7270/Q20K275C (The Scripps Research Institute Molecular Screening Center, 2012)
